Experiment [1] has as its system HS-PSS. The experiment in a line: drug sensitivity score (DSS, CellTiter-Glo viability, 72 h) (DSS (dimensionless)); higher = more sensitive; extreme values may be limits of the assay. A digest of the protocol: (§1)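 After seeding 750–1000 cells per well of MPNST cell lines or primary human Schwann cells into 384-well plates preprinted with each compound at five concentrations in 10-fold steps, plates were kept 72 h at 37 °C, 5% CO2. Viability was read as CellTiter-Glo ATP luminescence relative to vehicle and positive-control wells, with duplicates averaged where present. The data were fitted with four-parameter logistic models. Drug sensitivity score and relative IC50, censored at the top concentration, derive from the fits, and percent inhibition refers to the top concentration.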

The subject of experiment [2] is HS-Sch-2. The description is as above. The method in brief: as §1
Experiment [3] deals with YST-1. The experiment is described as above. The method in brief: as §1
Experiment [4] relates to HS-PSS. The experiment in a line: drug sensitivity score (DSS, CellTox-Green cytotoxicity, 72 h) (DSS (dimensionless)); higher = more cytotoxic; extreme values may be limits of the assay. The method in brief:
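For 72 h at 37 °C, MPNST cell lines and primary human Schwann cells were exposed in 384-well plates to five 10-fold compound dilutions. CellTox-Green, added before seeding at a final 1:1000 dilution, gave fluorescence from DNA released by disrupted cells. Signals were scaled to vehicle and positive-control wells, cultures failing plate quality control were left out, and four-parameter logistic fits were applied. Relative IC50 and drug sensitivity score were derived from the fits, with IC50 censored at the top concentration.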

The test system of experiment [5] is HS-PSS. The experiment in a line: % inhibition of CellTiter-Glo viability at highest tested concentration (72 h), relative to DMSO and benzethonium chloride controls; higher = more inhibition. The method in brief: as §1
Background: Cellular ATP, detected with luciferase, serves as a proxy for viable cell number.

Experiment [6] relates to HS-Sch-2. Described as above. A digest of the protocol:
as §1

In experiment [7] the test system is YST-1. Described as above. A digest of the protocol: as §1

Broadly, the % inhibition is the drop in the measured response relative to a control, in per cent. On to `CCS(=O)(=O)N1CCN(c2ccc(Nc3ncc(C(N)=O)c(NC4CC4)n3)cc2)CC1` [Cerdulatinib] (max concentration tested 10000 nM), for which the drug sensitivity score in experiment [1] is 3.47; in experiment [2], 4.87; in experiment [3] it was 0; in experiment [4] it was 0. Further, the “% inhibition” value was 40.3% in experiment [5], 58.9% in experiment [6] and -4.68% in experiment [7].

In the case of `Cc1cc(Nc2ncc(Cl)c(Nc3ccccc3S(=O)(=O)C(C)C)n2)c(OC(C)C)cc1C1CCNCC1` [Ceritinib] (max concentration tested 2500 nM), the drug sensitivity score in experiment [1] was found to be 10.6; in experiment [2] it was 1.13; in experiment [3], 8.09; in experiment [4], 0.17. Further, the “% inhibition” value in experiment [5] stood at 64.5%; in experiment [6], 30.9%; in experiment [7] it was 82.3%.

With `CCN(CC)CCCC(C)Nc1ccnc2cc(Cl)ccc12` (stereo not drawn) [Chloroquine] (max concentration tested 100000 nM), the drug sensitivity score in experiment [1] worked out at 18.7; in experiment [2], 17.1; in experiment [3], 9.66; in experiment [4], 9.74. The “% inhibition” value in experiment [5], in experiment [6] and in experiment [7] was 102% throughout.

Take `CC(C)[C@H]1C(=O)N[C@@H](CCCNC(=N)N)C(=O)NCC(=O)N[C@@H](CC(=O)O)C(=O)N[C@H](Cc2ccccc2)C(=O)N1C` [Cilengitide] (max concentration tested 10000 nM): the drug sensitivity score was determined as 0 in experiment [1], 1.06 in experiment [2], 0 in experiment [3] and 0 in experiment [4]. The “% inhibition” value in experiment [5] is 1.31%; in experiment [6], 27%; in experiment [7], -3.66%.

Consider `N.N.[Cl][Pt][Cl]` [Cisplatin] (max concentration tested 100000 nM), for which the drug sensitivity score in experiment [1] amounted to 13.1; in experiment [2], 23.1; in experiment [3], 13.8; in experiment [4] it was 9.13. Further, the “% inhibition” value was found to be 86.4% in experiment [5], 100% in experiment [6] and 95.9% in experiment [7].

For `O=C(c1ccc(F)c(F)c1Nc1ccc(I)cc1F)N1CC(O)([C@@H]2CCCCN2)C1` [Cobimetinib] (max concentration tested 1000 nM), the drug sensitivity score in experiment [1] turned out to be 4.46; in experiment [2], 4.02; in experiment [3], 0; in experiment [4], 0.01. In addition, the “% inhibition” value in experiment [5] is 49.3%; in experiment [6], 69.5%; in experiment [7], -5.92%.

As for `COc1c(OCCCN2CCOCC2)ccc2c1N=C(NC(=O)c1cnc(N)nc1)N1CCN=C21` [Copanlisib] (max concentration tested 1000 nM), the drug sensitivity score in experiment [1] worked out at 1.69; in experiment [2] it was 7.87; in experiment [3], 17.5; in experiment [4] it was 0. For the same compound, the figures for the “% inhibition” value in experiment [5], in experiment [6] and in experiment [7] were 44%, 70.5% and 92.5%, respectively.

For `CCN(CC)CCN(Cc1ccc(-c2ccc(C(F)(F)F)cc2)cc1)C(=O)Cn1c(SCc2ccc(F)cc2)nc(=O)c2c1CCC2` [Darapladib] (max concentration tested 1000 nM), the drug sensitivity score in experiment [1] is 3.85; in experiment [2] it was 2.38; in experiment [3], 1.09; in experiment [4], 3.71. Besides, the “% inhibition” value in experiment [5] was found to be 53.3%; in experiment [6] it was 33%; in experiment [7] it was 19.5%.

As for `CC(=O)N(O)CCCCCNC(=O)CCC(=O)N(O)CCCCCNC(=O)CCC(=O)N(O)CCCCCN` [Deferoxamine] (max concentration tested 10000 nM), the drug sensitivity score in experiment [1] came out at 8.62; in experiment [2], 10.5; in experiment [3], 6.36; in experiment [4] it was 1. The “% inhibition” value in experiment [5] is 89.5%; in experiment [6], 96.3%; in experiment [7], 78.5%.

For `CCN(CC)C(=S)SSC(=S)N(CC)CC` [Disulfiram] (max concentration tested 100000 nM), the drug sensitivity score in experiment [1] amounted to 30.6; in experiment [2], 27; in experiment [3], 30.7; in experiment [4], 8.67. Moreover, the “% inhibition” value in experiment [5], in experiment [6] and in experiment [7] was 101% in each case.

On to `C[C@H](Nc1ncnc2nc[nH]c12)c1cc2cccc(Cl)c2c(=O)n1-c1ccccc1` [Duvelisib] (max concentration tested 500 nM), for which the drug sensitivity score in experiment [1] was found to be 0; in experiment [2], 0.22; in experiment [3], 0.82; in experiment [4], 0.21. For the same compound, the entries for the “% inhibition” value in experiment [5], in experiment [6] and in experiment [7] were -0.01%, 13.6% and 19.5%, respectively.

As to `Cc1cc(Nc2cc(N3CCN(C)CC3)nc(/C=C/c3ccccc3)n2)n[nH]1` [ENMD-2076] (max concentration tested 10000 nM), the drug sensitivity score in experiment [1] is 8.13; in experiment [2], 12.1; in experiment [3], 10.8; in experiment [4], 1.84. In addition, the results for the “% inhibition” value in experiment [5], in experiment [6] and in experiment [7] were 70.5%, 95.5% and 63.9%, respectively.

Regarding `Cc1cc(C)c(CNC(=O)c2cc(-c3ccc(CN4CCOCC4)cc3)cc3c2cnn3C2CCCC2)c(=O)[nH]1` [EPZ-5687] (max concentration tested 10000 nM), the drug sensitivity score in experiment [1], in experiment [2], in experiment [3] and in experiment [4] was 0 throughout. For the same compound, the “% inhibition” value in experiment [5] is -1.01%; in experiment [6] it was -5.4%; in experiment [7], 1.37%.

`COC(=O)N[C@@H](C)CNc1nccc(-c2cn(C(C)C)nc2-c2cc(Cl)cc(NS(C)(=O)=O)c2F)n1` [Encorafenib] (max concentration tested 1000 nM): the drug sensitivity score in experiment [1] is 2.1; in experiment [2], 0.12; in experiment [3], 0; in experiment [4] it was 0. Moreover, the results for the “% inhibition” value in experiment [5], in experiment [6] and in experiment [7] were 14%, 14.4% and 3.93%, respectively.

The values are drawn from the supplement of paper PMC5579334.
